# Test: Yellow discoloration (b-value) by Color Test Method, accelerated stability 60° C. for two weeks
# Assay type: physicochemical
# Conditions: away from direct light, Example 2 with additional ingredient compared to Example 2
# Description: This test was performed under accelerated stability conditions of 60° C., away from direct light for two weeks and the samples were stored in containers that limited the free flow of oxygen. […] The b-value was determined by the Color Test Method, described hereafter.
# In Example 2, the DMDM hydantoin and iodopropynyl butylcarbamate preservative is replaced with a preservative system comprising hydroxyacetophenone and phenoxyethanol.
# To measure the color of the compositions of the present invention, approximately 8 mL of the product to be tested is transferred into a petri dish (35×10 mm disposable) using a syringe. The Petri dish is then placed on the black half of a standard opacity chart (Form N2A, Leneta Company of Manwah, NJ or the equivalent thereof, of which the top half is black and the bottom half is white). The color (L, a, and b values) of the product in the petri dish is then measured using an integrated sphere spectrophotometer with settings selected to exclude specular reflection. The value for “a” correlates to a value along the red-green (horizontal) axis, and the value for “b” correlates to a value along the blue-yellow (vertical) axis. […] A more positive or negative value represents a more intense color. […]
smiles,measurement,value
O=S([O-])[O-].[Na+].[Na+] [sodium sulfite],b-value vs. Example 2 (Control),dramatically reduced the composition's b-value

# Source: patent US20240099944A1, “Stable Skin Care Compositions Containing a Retinoid” (priority 2022, published 2024)
